We go through two molecules from PMC10859961, “Ir(III) Half-Sandwich Photosensitizers with a π-Expansive Ligand for Efficient Anticancer Photodynamic Therapy” (Journal of Medicinal Chemistry, 2024).

A short description of series [1]: Reactivity of 1w with n-Bu4NCl (1H NMR). Format: physicochemical. The settings on record: 100 equivalents of n‐Bu4NCl. On the procedure: A solution of 1w (3.0 mM) with 100 equiv of n-Bu4NCl (300 mM) in a DMSO-d6/D2O (9:1, v/v) mixture was monitored by NMR spectroscopy at room temperature and at 60 °C.
Series [2] in a line: Stability in DMEM (UV-vis). Format: physicochemical. The settings on record: DMEM without phenol red; dark; 48 h. On the procedure:
The stability of the complexes in biological media was studied by UV–vis spectroscopy. Complexes 1 and 2 were dissolved in DMSO and complexes 3–8 were dissolved in MeOH at 1.0 × 10^–3 M and then diluted to 1.0 × 10^–5 M with Dulbecco’s modified Eagle’s medium (DMEM) without phenol red (Corning) (the final concentration of DMSO or MeOH was 1%). The solutions were studied in the dark and under blue light irradiation (470 nm).

For a further series, the system named is A549 cells. The series is described as follows: Cell internalization (iridium content by ICP-MS). Format: cell-based, human. Conditions: for iridium content in cells: 10 μM, 1 h. On the procedure: To assess the cell internalization mechanism, 8 × 10^6 A549 cells were incubated with complex 6 at 10 μM for 1 h in the dark under different conditions: (i) at 37 °C (positive control cells), (ii) at 37 °C in the presence of CCCP (50 μM) (to inhibit mitochondrial ATP production) or (iii) at 4 °C (to inhibit cellular metabolism). The cells incubated with medium alone were included as negative control. Then, the cells were washed twice with PBS, detached with trypsin, and centrifuged to obtain the whole cell pellet. […] The iridium amount in the samples was then determined by inductively coupled plasma mass spectrometry (ICP-MS) analysis. To this end, the cell pellets were dissolved in 400 μL of 69% v/v nitric acid (PanReac Applichem) and heated in a water bath at 100 °C for 18 h. Samples were then allowed to cool and diluted with Milli-Q water to a final volume of 10 mL. […] Iridium content was measured on an ICP-MS Agilent 7500c instrument at the Serveis Tècnics de Recerca, Universitat de Girona. The solvent used for all ICP-MS experiments was Milli-Q water with 2% superpure grade HNO3. The iridium standard (high purity standards, 1000 μg/mL ± 2 μg/mL in 5% hydrochloric acid in low TOC water (<50 ppb)) was diluted with 2% HNO3 to 400 ppb. Iridium standards were freshly prepared in Milli-Q water with 2% HNO3 before each experiment. The concentrations used for the calibration curve were 0, 1, 2, 5, 10, and 20 ppb. The isotope detected was 193Ir and readings were done in triplicate. Rhodium was added as an internal standard at a concentration of 10 ppb to all samples. All of the experiments were performed by duplicate.

For the molecule `Cc1c(C)c(C)[c-](C)c1C.[Cl][Ir]1[c]2cccc3c4nc5ccccc5nc4c4ccc[n+]1c4c23` [complex 1, [(η^5-C5Me5)IrCl(pbpz)]], the “chloride complex 1 formed back from 1w” value in series [1] (60 °C, 15 minutes) is “approximately 15%”; in series [1] (room temperature, 4 days) it was 2%. Besides, the “stability in DMEM (UV–vis changes)” value in series [2] is “minor change”.
On to `Cc1c(C)c(C)[c-](C)c1C.F[B-](F)(F)F.c1ccc2cc3nc4c5ccc[n+]6c5c5[c](cccc5c4nc3cc2c1)[Ir]6[n+]1ccn(CCN2CCCCC2)c1` [complex 6, [(η^5-C5Me5) Ir(Imepip)(pbpn)]BF4], for which the “iridium content in cells” value came to 18.0 ± 3 ng/10^6 cells in the series on A549 cells (4 °C); 87.6 ± 4 ng/10^6 cells in the series with A549 cells (37 °C, no inhibition); 17.6 ± 2 ng/10^6 cells in the series on A549 cells (CCCP pretreatment). Also, the “reduction of iridium content vs 37 °C” value in the series with A549 cells (at 4 °C or with CCCP pretreatment) is recorded as “approximately 80%”.
